What follows are compounds tested on myeloid leukemia patient primary cells Pat.11 (assay: cell viability (% survival relative to DMSO control); higher = less cytotoxic). Settings: 100 nM; 72 h.
In short: (§1)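 Thawed mononuclear cells from AML or CML patients were purified on Ficoll and cultured for 72 h in RPMI 1640 with 10% FBS, at 10,000 cells/well, on 384-well plates carrying 70 pre-printed compounds at 1–10,000 nM in five tenfold steps, in duplicate. Viability came from CellTiter-Glo, normalised against DMSO and against 10 μM proteasome inhibitor. Any area under the curve given was derived from log-logistic curve fits in the drc and PharmacoGx R packages, and these fits had four parameters.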

Point of comparison: `C=C1NC(=O)c2cc(CN(C)c3ccc(C(=O)N[C@@H](CCC(=O)O)C(=O)O)s3)ccc2N1` [Raltitrexed], cell viability 99.3%. Against it:
- CCCCCCCCCCCCC/C=C/[C@@H](O)[C@H](CO)N(C)C [N,N-Dimethylsphingosine] — lower, 94.1%
- Nc1nc(O)c2c(CCc3ccc(C(=O)N[C@@H](CCC(=O)O)C(=O)O)cc3)c[nH]c2n1 [Pemetrexed] — higher, > 100%

Same assay, conditions: 1000 nM; 72 h

Point of comparison: `NS(=O)(=O)c1ccc(S(=O)(=O)Nc2cccc3c(Cl)c[nH]c23)cc1` [Indisulam], cell viability 86.3%. Against it:
- Cc1nnc(-c2ccc(N3CCC(Oc4ccccc4C(F)(F)F)CC3)nn2)s1 [MF-438] — higher, > 100%
- CCCCCCCCCCCCC/C=C/[C@@H](O)[C@H](CO)N(C)C [N,N-Dimethylsphingosine] — higher, 93.3%
- Nc1nc(O)c2c(CCc3ccc(C(=O)N[C@@H](CCC(=O)O)C(=O)O)cc3)c[nH]c2n1 [Pemetrexed] — higher, > 100%
- C=C1NC(=O)c2cc(CN(C)c3ccc(C(=O)N[C@@H](CCC(=O)O)C(=O)O)s3)ccc2N1 [Raltitrexed] — higher, 97.4%

Same assay, conditions: 10000 nM; 72 h

Point of comparison: `Nc1nc(O)c2c(CCc3ccc(C(=O)N[C@@H](CCC(=O)O)C(=O)O)cc3)c[nH]c2n1` [Pemetrexed], cell viability 93.9%. Against it:
- NS(=O)(=O)c1ccc(S(=O)(=O)Nc2cccc3c(Cl)c[nH]c23)cc1 [Indisulam] — lower, 72.1%
- Cc1nnc(-c2ccc(N3CCC(Oc4ccccc4C(F)(F)F)CC3)nn2)s1 [MF-438] — lower, 90.6%
- CCCCCCCCCCCCC/C=C/[C@@H](O)[C@H](CO)N(C)C [N,N-Dimethylsphingosine] — lower, 19.4%
- C=C1NC(=O)c2cc(CN(C)c3ccc(C(=O)N[C@@H](CCC(=O)O)C(=O)O)s3)ccc2N1 [Raltitrexed] — higher, 99.2%

Each compound was assayed on myeloid leukemia patient primary cells Pat.6 in the same assay as above. Settings: 1 nM; 72 h.
In short: as §1

Point of comparison: `Nc1nc(O)c2c(CCc3ccc(C(=O)N[C@@H](CCC(=O)O)C(=O)O)cc3)c[nH]c2n1` [Pemetrexed], cell viability 96.3%. Against it:
- NS(=O)(=O)c1ccc(S(=O)(=O)Nc2cccc3c(Cl)c[nH]c23)cc1 [Indisulam] — higher, 99.9%
- Cc1nnc(-c2ccc(N3CCC(Oc4ccccc4C(F)(F)F)CC3)nn2)s1 [MF-438] — lower, 95.4%
- CCCCCCCCCCCCC/C=C/[C@@H](O)[C@H](CO)N(C)C [N,N-Dimethylsphingosine] — higher, > 100%
- C=C1NC(=O)c2cc(CN(C)c3ccc(C(=O)N[C@@H](CCC(=O)O)C(=O)O)s3)ccc2N1 [Raltitrexed] — lower, 90.3%

Same assay, conditions: 10 nM; 72 h

Point of comparison: `NS(=O)(=O)c1ccc(S(=O)(=O)Nc2cccc3c(Cl)c[nH]c23)cc1` [Indisulam], cell viability 98.2%. Against it:
- Cc1nnc(-c2ccc(N3CCC(Oc4ccccc4C(F)(F)F)CC3)nn2)s1 [MF-438] — higher, 98.9%
- CCCCCCCCCCCCC/C=C/[C@@H](O)[C@H](CO)N(C)C [N,N-Dimethylsphingosine] — higher, 99.3%
- Nc1nc(O)c2c(CCc3ccc(C(=O)N[C@@H](CCC(=O)O)C(=O)O)cc3)c[nH]c2n1 [Pemetrexed] — higher, > 100%
- C=C1NC(=O)c2cc(CN(C)c3ccc(C(=O)N[C@@H](CCC(=O)O)C(=O)O)s3)ccc2N1 [Raltitrexed] — lower, 98.1%

Same assay, conditions: 100 nM; 72 h

Point of comparison: `CCCCCCCCCCCCC/C=C/[C@@H](O)[C@H](CO)N(C)C` [N,N-Dimethylsphingosine], cell viability 76.5%. Against it:
- NS(=O)(=O)c1ccc(S(=O)(=O)Nc2cccc3c(Cl)c[nH]c23)cc1 [Indisulam] — higher, > 100%
- Cc1nnc(-c2ccc(N3CCC(Oc4ccccc4C(F)(F)F)CC3)nn2)s1 [MF-438] — higher, 99.5%
- Nc1nc(O)c2c(CCc3ccc(C(=O)N[C@@H](CCC(=O)O)C(=O)O)cc3)c[nH]c2n1 [Pemetrexed] — higher, 97.8%
- C=C1NC(=O)c2cc(CN(C)c3ccc(C(=O)N[C@@H](CCC(=O)O)C(=O)O)s3)ccc2N1 [Raltitrexed] — higher, > 100%

Same assay, conditions: 1000 nM; 72 h

Point of comparison: `Cc1nnc(-c2ccc(N3CCC(Oc4ccccc4C(F)(F)F)CC3)nn2)s1` [MF-438], cell viability 83%. Against it:
- NS(=O)(=O)c1ccc(S(=O)(=O)Nc2cccc3c(Cl)c[nH]c23)cc1 [Indisulam] — lower, 81.5%
- CCCCCCCCCCCCC/C=C/[C@@H](O)[C@H](CO)N(C)C [N,N-Dimethylsphingosine] — higher, 83.7%
- Nc1nc(O)c2c(CCc3ccc(C(=O)N[C@@H](CCC(=O)O)C(=O)O)cc3)c[nH]c2n1 [Pemetrexed] — higher, 98.7%
- C=C1NC(=O)c2cc(CN(C)c3ccc(C(=O)N[C@@H](CCC(=O)O)C(=O)O)s3)ccc2N1 [Raltitrexed] — higher, > 100%

Same assay, conditions: 10000 nM; 72 h

Point of comparison: `Cc1nnc(-c2ccc(N3CCC(Oc4ccccc4C(F)(F)F)CC3)nn2)s1` [MF-438], cell viability 85.3%. Against it:
- NS(=O)(=O)c1ccc(S(=O)(=O)Nc2cccc3c(Cl)c[nH]c23)cc1 [Indisulam] — lower, 63.2%
- CCCCCCCCCCCCC/C=C/[C@@H](O)[C@H](CO)N(C)C [N,N-Dimethylsphingosine] — lower, 0.544%
- Nc1nc(O)c2c(CCc3ccc(C(=O)N[C@@H](CCC(=O)O)C(=O)O)cc3)c[nH]c2n1 [Pemetrexed] — lower, 78.6%
- C=C1NC(=O)c2cc(CN(C)c3ccc(C(=O)N[C@@H](CCC(=O)O)C(=O)O)s3)ccc2N1 [Raltitrexed] — higher, > 100%

What follows are compounds tested on myeloid leukemia patient primary cells Pat.13 in the same assay as above. Settings: 1 nM; 72 h.
In short: as §1

Point of comparison: `Cc1nnc(-c2ccc(N3CCC(Oc4ccccc4C(F)(F)F)CC3)nn2)s1` [MF-438], cell viability 86.8%. Against it:
- NS(=O)(=O)c1ccc(S(=O)(=O)Nc2cccc3c(Cl)c[nH]c23)cc1 [Indisulam] — higher, 92.6%
- CCCCCCCCCCCCC/C=C/[C@@H](O)[C@H](CO)N(C)C [N,N-Dimethylsphingosine] — higher, 94.6%
- Nc1nc(O)c2c(CCc3ccc(C(=O)N[C@@H](CCC(=O)O)C(=O)O)cc3)c[nH]c2n1 [Pemetrexed] — higher, 91.5%
- C=C1NC(=O)c2cc(CN(C)c3ccc(C(=O)N[C@@H](CCC(=O)O)C(=O)O)s3)ccc2N1 [Raltitrexed] — higher, > 100%

Same assay, conditions: 10 nM; 72 h

Point of comparison: `Cc1nnc(-c2ccc(N3CCC(Oc4ccccc4C(F)(F)F)CC3)nn2)s1` [MF-438], cell viability 86.4%. Against it:
- NS(=O)(=O)c1ccc(S(=O)(=O)Nc2cccc3c(Cl)c[nH]c23)cc1 [Indisulam] — higher, 91.3%
- CCCCCCCCCCCCC/C=C/[C@@H](O)[C@H](CO)N(C)C [N,N-Dimethylsphingosine] — lower, 86.2%
- Nc1nc(O)c2c(CCc3ccc(C(=O)N[C@@H](CCC(=O)O)C(=O)O)cc3)c[nH]c2n1 [Pemetrexed] — higher, 94.6%
- C=C1NC(=O)c2cc(CN(C)c3ccc(C(=O)N[C@@H](CCC(=O)O)C(=O)O)s3)ccc2N1 [Raltitrexed] — lower, 85.4%

Same assay, conditions: 100 nM; 72 h

Point of comparison: `Cc1nnc(-c2ccc(N3CCC(Oc4ccccc4C(F)(F)F)CC3)nn2)s1` [MF-438], cell viability 86.9%. Against it:
- NS(=O)(=O)c1ccc(S(=O)(=O)Nc2cccc3c(Cl)c[nH]c23)cc1 [Indisulam] — higher, 98%
- CCCCCCCCCCCCC/C=C/[C@@H](O)[C@H](CO)N(C)C [N,N-Dimethylsphingosine] — lower, 71.2%
- Nc1nc(O)c2c(CCc3ccc(C(=O)N[C@@H](CCC(=O)O)C(=O)O)cc3)c[nH]c2n1 [Pemetrexed] — higher, 90.8%
- C=C1NC(=O)c2cc(CN(C)c3ccc(C(=O)N[C@@H](CCC(=O)O)C(=O)O)s3)ccc2N1 [Raltitrexed] — higher, > 100%

Same assay, conditions: 1000 nM; 72 h

Point of comparison: `C=C1NC(=O)c2cc(CN(C)c3ccc(C(=O)N[C@@H](CCC(=O)O)C(=O)O)s3)ccc2N1` [Raltitrexed], cell viability 92.6%. Against it:
- NS(=O)(=O)c1ccc(S(=O)(=O)Nc2cccc3c(Cl)c[nH]c23)cc1 [Indisulam] — lower, 57.4%
- Cc1nnc(-c2ccc(N3CCC(Oc4ccccc4C(F)(F)F)CC3)nn2)s1 [MF-438] — lower, 80.8%
- CCCCCCCCCCCCC/C=C/[C@@H](O)[C@H](CO)N(C)C [N,N-Dimethylsphingosine] — lower, 85.7%
- Nc1nc(O)c2c(CCc3ccc(C(=O)N[C@@H](CCC(=O)O)C(=O)O)cc3)c[nH]c2n1 [Pemetrexed] — lower, 82.7%

Same assay, conditions: 10000 nM; 72 h

`NS(=O)(=O)c1ccc(S(=O)(=O)Nc2cccc3c(Cl)c[nH]c23)cc1` [Indisulam] showed a cell viability of 44.8%.

Reference: the supplement of paper PMC8671470
